Columns and labels:
[1] = Cytotoxicity in HepG2.117 cells, ATPlite Luminescence Assay; assay type: cell-based, human; settings: human, incubated for 3 days, mean value, read-out: TOX-HepG2.117 CC50 (μM, mean value)
Procedure: Cytotoxicity of the compounds was tested using HepG2 or HepG2.117 cells, incubated for 3 days in the presence of compounds. The viability of the cells was assessed using the PERKIN ELMER ATPlite Luminescence Assay System.”

HBV = assay: Anti-HBV activity: intracellular HBV DNA by real-time PCR in HepG2.117 cell line; assay type: cell-based, Hepatitis B virus; settings: Hepatitis B virus, 72 h; HepG2.117 cells, 3 days of treatment, intracellular HBV DNA by real-time PCR, mean value; read-out: HBV-AVE-HepG2.117 EC50 (μM, mean value)
Procedure: The anti HBV activity was measured using the HepG2.117 cell line, a stable, inducibly HBV producing cell line, which replicates HBV in the absence of doxicycline (Tet-off system). The HepG2 cell line is available from ATCC® under number HB-8065. Transfection of the HepG2 cell line can be as described in Sun and Nassal 2006 Journal of Hepatology 45 (2006) 636-645 “Stable HepG2- and Huh7-based human hepatoma cell lines for efficient regulated expression of infectious hepatitis B virus”.
For the antiviral assay, HBV replication was induced, followed by a treatment with serially diluted compound in 96-well plates. After 3 days of treatment, the antiviral activity was determined by quantification of intracellular HBV DNA using real-time PCR and an HBV specific primer set and probe.

For `C[C@@H]1Cc2nn3c(c2CN1C(=O)c1ccc(Cl)c(Cl)c1)C(=O)N([C@H](C)c1ccc(C(F)(F)F)cc1)CC3` (relative stereo) [C105*R], the CC50 at 3 days [1] was 14.6 µM and the EC50 (HBV) was 0.059 µM.
Work on `C[C@@H]1Cc2nn3c(c2CN1C(=O)c1ccc(Cl)c(Cl)c1)C(=O)N(Cc1nnn(C)c1C(F)(F)F)CC3` [Example C165] yielded a CC50 at 3 days [1] of over 50 µM and an EC50 (HBV) of 0.676 µM.
In the case of `O=C(c1ccc(Cl)c(Cl)c1)N1CCc2nn3c(c2C1)C(=O)N(Cc1ccncc1)CCC3` [Compound 37, 2-(3,4-Dichlorobenzoyl)-10-[(pyridin-4-yl)methyl]-1,2,3,4,7,8,9,10-octahydro-11H-pyrido-[4′,3′:3,4]pyrazolo[1,5-a][1,4]diazepin-11-one], the CC50 at 3 days [1] is reported as over 50 µM and the EC50 (HBV) is reported as 0.345 µM.
Compound `C[C@@H]1Cc2nn3c(c2CN1C(=O)c1cc2c(Cl)c(F)ccc2[nH]1)C(=O)N(Cc1ccccn1)CC3` [Example C102] has a CC50 at 3 days [1] of 7.14 µM and an EC50 (HBV) of 0.019 µM.
With `O=C(c1cnc(Cl)c(Cl)c1)N1CCc2nn3c(c2C1)C(=O)N(Cc1ccccn1)CC3` [Example C73] the CC50 at 3 days [1] was over 50 µM and the EC50 (HBV) was over 2.5 µM.
`COc1cccc(F)c1CN1CCn2nc3c(c2C1=O)CN(C(=O)c1ccc(Cl)c(Cl)c1)[C@H](C)C3` [Example C166] gave a CC50 at 3 days [1] of 29.1 µM and an EC50 (HBV) of 0.034 µM.
Work on `COc1ncc(CN2CCn3nc4c(c3C2=O)CN(C(=O)c2ccc(Cl)c(Cl)c2)[C@H](C)C4)cn1` [Example C198] yielded a CC50 at 3 days [1] of over 50 µM and an EC50 (HBV) of 0.053 µM.
`CCOc1cc(CN2CCn3nc4c(c3C2=O)CN(C(=O)c2ccc(Cl)c(Cl)c2)[C@H](C)C4)nc2nc(C(F)(F)F)nn12` [Example C243] showed a CC50 at 3 days [1] of over 50 µM and an EC50 (HBV) of over 2.5 µM.
In the case of `C[C@@H]1Cc2nn3c(c2CN1C(=O)c1ccc(Cl)c(Cl)c1)C(=O)N(Cc1ccnc(C#N)c1)CC3` [Example C211], the CC50 at 3 days [1] is reported as over 50 µM and the EC50 (HBV) is reported as 0.285 µM.
`COc1ccc(CCN2CCn3nc4c(c3C2=O)CN(C(=O)c2ccc(Cl)c(Cl)c2)[C@H](C)C4)cc1` [Example C58] gave a CC50 at 3 days [1] of 18 µM and an EC50 (HBV) of 0.531 µM.
With `CC(c1cncnc1)N1CCn2nc3c(c2C1=O)CN(C(=O)c1ccc(Cl)c(Cl)c1)[C@H](C)C3` (some centres unmarked) [Example C103] the CC50 at 3 days [1] was over 50 µM and the EC50 (HBV) was 0.39 µM.
In the case of `CN1O[C@H](CO)Cn2nc3c(c2C1=O)CN(C(=O)c1ccc(Cl)c(Cl)c1)CC3` (single isomer, unassigned) [Compound 46, (4*S)-10-(3,4-Dichlorobenzoyl)-4-(hydroxymethyl)-2-methyl-4,5,8,9,10,11-hexahydropyrido-[4′,3′:3,4]pyrazolo[5,1-d][1,2,5]oxadiazepin-1(2H)-one], the CC50 at 3 days [1] is reported as over 50 µM and the EC50 (HBV) is reported as 0.505 µM.
In the case of `Cc1ncc(CN2CCn3nc4c(c3C2=O)CN(C(=O)c2ccc(Cl)c(Cl)c2)[C@H](C)C4)s1` [Example C160], the CC50 at 3 days [1] is reported as over 50 µM and the EC50 (HBV) is reported as 0.029 µM.
Work on `Cc1cnc(CN2CCn3nc4c(c3C2=O)CN(C(=O)c2ccc(Cl)c(Cl)c2)[C@H](C)C4)o1` [Example C138] yielded a CC50 at 3 days [1] of over 50 µM and an EC50 (HBV) of 0.061 µM.
For `C[C@@H]1Cc2nn3c(c2CN1C(=O)c1cc2c(Cl)c(Cl)ccc2[nH]1)C(=O)N(Cc1ccccn1)CC3` [Example C94, (R)-2-(4,5-dichloro-1H-indole-2-carbonyl)-3-methyl-9-(pyridin-2-ylmethyl)-1,2,3,4,8,9-hexahydropyrido[4′,3′:3,4]pyrazolo[1,5-a]pyrazin-10(7H)-one], the CC50 at 3 days [1] was 4.77 µM and the EC50 (HBV) was 0.162 µM.
Compound `C[C@@H]1Cc2nn3c(c2CN1C(=O)c1ccc(Cl)c(Cl)c1)C(=O)N(Cc1ccc(C#N)cn1)CC3` [Example C195] has a CC50 at 3 days [1] of over 50 µM and an EC50 (HBV) of 0.566 µM.
For `C[C@@H]1Cc2nn3c(c2CN1C(=O)c1ccc(Cl)c(Cl)c1)C(=O)N(Cc1ccc(F)cc1)CC3` [Compound 12, (3R)-2-(3,4-Dichlorobenzoyl)-9-[(4-fluorophenyl)methyl]-3-methyl-1,2,3,4,8,9-hexahydro-pyrido[4′,3′:3,4]pyrazolo[1,5-a]pyrazin-10(7H)-one], the CC50 at 3 days [1] was 25.3 µM and the EC50 (HBV) was 0.066 µM.
For `C[C@@H]1Cc2nn3c(c2CN1C(=O)c1ccc(Cl)c(Cl)c1)C(=O)N(Cc1ccc(Cl)nc1)CC3` [Example C91], the CC50 at 3 days [1] was 36.7 µM and the EC50 (HBV) was 0.083 µM.
In the case of `Cc1nccnc1C(C)N1CCn2nc3c(c2C1=O)CN(C(=O)c1ccc(Cl)c(Cl)c1)[C@H](C)C3` (some centres unmarked) [Example C193], the CC50 at 3 days [1] is reported as over 50 µM and the EC50 (HBV) is reported as 0.197 µM.
`C[C@@H]1Cc2nn3c(c2CN1C(=O)c1ccc(Cl)c(Cl)c1)C(=O)N(Cc1ccn(CC(F)(F)F)n1)CC3` [Example C135] gave a CC50 at 3 days [1] of over 50 µM and an EC50 (HBV) of 0.1 µM.
`CCc1nnc(C(C)N2CCn3nc4c(c3C2=O)CN(C(=O)c2ccc(Cl)c(Cl)c2)[C@H](C)C4)o1` (some centres unmarked) [Example C220] showed a CC50 at 3 days [1] of over 50 µM and an EC50 (HBV) of 0.077 µM.
Compound `C[C@@H]1Cc2nn3c(c2CN1C(=O)c1ccc(Cl)c(Cl)c1)C(=O)N(Cc1ccc(C(F)(F)F)cn1)CC3` [Example C237] has a CC50 at 3 days [1] of 18.8 µM and an EC50 (HBV) of 0.107 µM.
Compound `C[C@@H]1Cc2nn3c(c2CN1C(=O)c1cc2c(F)ccc(F)c2[nH]1)C(=O)N(Cc1ccccn1)CC3` [Example C108] has a CC50 at 3 days [1] of 20 µM and an EC50 (HBV) of 0.085 µM.
`C[C@@H]1Cc2nn3c(c2CN1C(=O)c1ccc(Cl)c(Cl)c1)C(=O)N(Cc1ccnn1C)CC3` [Compound 18, (3R)-2-(3,4-Dichlorobenzoyl)-3-methyl-9-[(1-methyl-1H-pyrazol-5-yl)methyl]-1,2,3,4,8,9-hexahydropyrido[4′,3′:3,4]pyrazolo[1,5-a]pyrazin-10(7H)-one] gave a CC50 at 3 days [1] of over 50 µM and an EC50 (HBV) of 0.252 µM.
`CC(c1nncn1C)N1CCn2nc3c(c2C1=O)CN(C(=O)c1ccc(Cl)c(Cl)c1)[C@H](C)C3` (some centres unmarked) [Example C249] gave a CC50 at 3 days [1] of over 50 µM and an EC50 (HBV) of over 2.5 µM.
Compound `Cc1nc(CN2CCn3nc4c(c3C2=O)CN(C(=O)c2ccc(Cl)c(Cl)c2)[C@H](C)C4)no1` [Example C151] has a CC50 at 3 days [1] of over 50 µM and an EC50 (HBV) of 0.42 µM.
`C[C@@H]1Cc2nn3c(c2CN1C(=O)c1ccc(Cl)c(Cl)c1)C(=O)N(Cc1cncc(F)c1)CC3` [Example C153] gave a CC50 at 3 days [1] of over 50 µM and an EC50 (HBV) of 0.082 µM.
`Cc1ncsc1CN1CCn2nc3c(c2C1=O)CN(C(=O)c1ccc(Cl)c(Cl)c1)[C@H](C)C3` [Example C150] showed a CC50 at 3 days [1] of over 50 µM and an EC50 (HBV) of 0.075 µM.
`O=C(c1ccc(Cl)c(Cl)c1)N1CCc2nn3c(c2C1)C(=O)N(Cc1nccs1)CC3` [Compound 7, 2-(3,4-Dichlorobenzoyl)-9-[(1,3-thiazol-2-yl)methyl]-1,2,3,4,8,9-hexahydropyrido[4′,3′:3,4]-pyrazolo[1,5-a]pyrazin-10(7H)-one] gave a CC50 at 3 days [1] of over 50 µM and an EC50 (HBV) of 0.399 µM.
`Cc1nc(C(C)N2CCn3nc4c(c3C2=O)CN(C(=O)c2ccc(Cl)c(Cl)c2)[C@H](C)C4)no1` (some centres unmarked) [Example C225] showed a CC50 at 3 days [1] of over 50 µM and an EC50 (HBV) of 0.263 µM.
Work on `C[C@@H]1Cc2nn3c(c2CN1C(=O)c1ccc(Cl)c(Cl)c1)C(=O)N(Cc1ccc(C#N)cc1)CC3` [Example C82] yielded a CC50 at 3 days [1] of 32.5 µM and an EC50 (HBV) of 0.019 µM.
With `CC(c1ccc(F)cc1F)N1CCn2nc3c(c2C1=O)CN(C(=O)c1ccc(Cl)c(Cl)c1)[C@H](C)C3` (some centres unmarked) [Example C192] the CC50 at 3 days [1] was 39.7 µM and the EC50 (HBV) was 0.076 µM.
With `C[C@@H]1Cc2nn3c(c2CN1C(=O)c1ccc(Cl)c(Cl)c1)C(=O)N(Cc1cn(C)cn1)CC3` [Example C202] the CC50 at 3 days [1] was over 50 µM and the EC50 (HBV) was 0.071 µM.
For `CC(c1ccccc1)N1CCn2nc3c(c2C1=O)CN(C(=O)c1ccc(Cl)c(Cl)c1)[C@H](C)C3` (some centres unmarked) [Example C93], the CC50 at 3 days [1] was 30 µM and the EC50 (HBV) was 0.055 µM.

Reference: patent publication US20220348592A1, “FUSED HETEROCYCLIC DERIVATIVES” (Janssen Sciences Ireland Unlimited Company, priority 2019, published 2022)
